Each compound was assayed against T1, KRAS G12C 1-169, his-tagged protein, GDP-loaded (Homo sapiens, UniProt P01116, G12C) (assay: Biochemical assay: covalent binding to KRAS G12C analyzed by mass spectrometry). Conditions: compounds 1-47, measured at 24 h.
T1 construct: KRAS G12C 1-169, his-tagged protein, GDP-loaded
Description: Compounds were tested for activity as follows:
Compounds were diluted to 50× final test concentration in DMSO in 96-well storage plates. […] Reactions were mixed carefully and thoroughly by pipetting up/down with a 200 μl multi-channel pipettor. […] 5 μl of 2% formic acid (Fisher cat#A117) in DI H2O was then added to each well followed by mixing with a pipette. The plate was then resealed with aluminum seal and stored on dry ice until analyzed as described below.
The above described assays were analyzed by mass spectrometry according to the following procedure:
The MS instrument is set to positive polarity, 2 GHz resolution, and low mass (1700) mode and allowed to equilibrate for 30 minutes. The instrument is then calibrated, switched to acquisition mode and the appropriate method loaded.
After another 30 minute equilibration time, a blank batch (i.e., buffer) is run to ensure equipment is operating properly. The samples are thawed at 37° C. for 10 minutes, briefly centrifuged, and transfer to the bench top. Wells A1 and H12 are spiked with 1 μL 500 μM internal standard peptide, and the plates centrifuged at 2000×g for 5 minutes. The method is then run and masses of each individual well recorded.
The masses (for which integration data is desired) for each well are pasted into the platemap and exported from the analysis. Masses for the internal standards are exported as well. The data at 50 ppm is extracted for the +19 charge state, and identity of well A1 is assigned using the internal standard spike and integrated. Peak data is exported as a TOF list and the above steps are repeated individually, for the +20, 21, 22, 23, 24, and 25 charge states.

T1 sequence (P01116 1-169 isoform P01116-2 G12C): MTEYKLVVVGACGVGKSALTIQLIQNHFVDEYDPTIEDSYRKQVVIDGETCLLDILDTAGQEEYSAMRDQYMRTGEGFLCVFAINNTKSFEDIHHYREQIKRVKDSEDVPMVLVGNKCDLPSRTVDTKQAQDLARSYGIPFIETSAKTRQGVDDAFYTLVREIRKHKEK

Row | SMILES | Binding %
1 | C=CC(=O)N1CCN(c2ncnc3cc(Cl)c(-c4ccc(Cl)s4)cc23)CC1 [Compound I-34, 1-(4-(7-chloro-6-(5-chlorothiophen-2-yl)quinazolin-4-yl)piperazin-1-yl)prop-2-en-1-one] | +++ (+++indicates binding activity greater than 50% and up to 75%)
2 | C=CC(=O)N1CCN(c2nccc3cc(Cl)c(-c4ccccc4Cl)cc23)CC1 [Compound I-24, 1-(4-(6-chloro-7-(2-chlorophenyl)isoquinolin-1-yl)piperazin-1-yl)prop-2-en-1-one] | + (+indicates binding activity from 5% to 25%)
3 | C=CC(=O)N1CCN(c2ncnc3cc(Cl)c(N4CCOCC4)cc23)CC1 [Compound I-32, 1-(4-(7-chloro-6-morpholinoquinazolin-4-yl)piperazin-1-yl)prop-2-en-1-one] | + (+indicates binding activity from 5% to 25%)
4 | C=CC(=O)N1CC(Nc2ncnc3cc(Cl)c(-c4ccccc4Cl)cc23)C1 [Compound I-30, 1-(3-(7-chloro-6-(2-chlorophenyl)quinazolin-4-ylamino)azetidin-1-yl)prop-2-en-1-one] | + (+indicates binding activity from 5% to 25%)
5 | C=CC(=O)N1CCN(c2ncnc3cc(Cl)c(-c4ccc(Cl)cc4)cc23)CC1 [Compound I-4, 1-(4-(7-chloro-6-(4-chlorophenyl)quinazolin-4-yl)piperazin-1-yl)prop-2-en-1-one] | ++++ (++++indicates binding activity greater than 75%)
6 | C=CC(=O)N1CCN(c2ncnc3cc(Cl)c(-c4ccc(Cl)cc4)cc23)CC1CO (stereo not drawn) [Compound I-46, 1-(4-(7-chloro-6-(4-chlorophenyl)quinazolin-4-yl)-2-(hydroxymethyl)piperazin-1-yl)prop-2-en-1-one] | ++++ (++++indicates binding activity greater than 75%)
7 | C=CC(=O)N1CCN(c2n[nH]c3cc(Cl)c(-c4ccccc4Cl)cc23)CC1 [Compound I-3, 1-(4-(6-chloro-5-(2-chlorophenyl)-1H-indazol-3-yl)piperazin-1-yl)prop-2-en-1-one] | + (+indicates binding activity from 5% to 25%)
8 | C=CC(=O)N1CCN(c2ncnc3cc(Cl)c(-c4ccc(C)s4)cc23)CC1 [Compound I-26, 1-(4-(7-chloro-6-(5-methylthiophen-2-yl)quinazolin-4-yl)piperazin-1-yl)prop-2-en-1-one] | ++ (++indicates binding activity greater than 25% and up to 50%)

Same assay, conditions: compounds 48-246, measured at 2 h

Row | SMILES | Binding %
9 | C=CC(=O)N1CCN(c2ncnc3cc(-c4cccc(Cl)c4)c(Cl)cc23)CC1 [Compound I-73, 1-(4-(6-chloro-7-(3-chlorophenyl)quinazolin-4-yl)piperazin-1-yl)prop-2-en-1-one] | ++ (++indicates binding activity greater than 25% and up to 50%)
10 | C=CC(=O)N1CCN(c2ncnc3cc(Oc4ccccc4)c(Cl)cc23)CC1 [Compound I-76, 1-(4-(6-chloro-7-phenoxyquinazolin-4-yl)piperazin-1-yl)prop-2-en-1-one] | + (+indicates binding activity from 5% to 25%)
11 | C=CC(=O)N1CCN(c2ncnc3cc(-c4ccc(Cl)cc4)c(Cl)cc23)CC1CC#N (stereo not drawn) [Compound I-111, 2-(1-acryloyl-4-(6-chloro-7-(4-chlorophenyl)quinazolin-4-yl)piperazin-2-yl)acetonitrile] | +++ (+++indicates binding activity greater than 50% and up to 75%)
12 | C=CC(=O)N1CCN(c2ncnc3ccccc23)CC1C#N (stereo not drawn) [Compound I-57, 1-acryloyl-4-(quinazolin-4-yl)piperazine-2-carbontrile] | + (+indicates binding activity from 5% to 25%)
13 | C=CC(=O)N1CCN(c2ncnc3cc(-c4ccccc4)c(Cl)cc23)CC1 [Compound I-67, 1-(4-(6-chloro-7-phenylquinazolin-4-yl)piperazin-1-yl)prop-2-en-1-one] | +++ (+++indicates binding activity greater than 50% and up to 75%)
14 | C=CC(=O)N1CCN(c2ncnc3cc(Cl)c(-c4ccc(Cl)cc4)cc23)C[C@H]1C(N)=O [Compound I-54, (S)-1-acryloyl-4-(7-chloro-6-(4-chlorophenyl)quinazolin-4-yl)piperazine-2-carboxamide] | ++ (++indicates binding activity greater than 25% and up to 50%)
15 | C=CC(=O)N1CCN(c2ncnc3cc(-c4cc(Cl)ccc4F)c(Cl)cc23)CC1 [Compound I-115, 1-(4-(6-chloro-7-(5-chloro-2-fluorophenyl)quinazolin-4-yl)piperazin-1-yl)prop-2-en-1-one] | +++ (+++indicates binding activity greater than 50% and up to 75%)
16 | C=CC(=O)N1CCN(c2ncnc3cc(-c4ccccc4C(F)(F)F)c(Cl)cc23)CC1CC#N (stereo not drawn) [Compound I-125, 2-(1-acryloyl-4-(6-chloro-7-(2-(trifluoromethyl)phenyl)quinazolin-4-yl)piperazin-2-yl)acetonitrile] | ++++ (++++indicates binding activity greater than 75%)

Same assay, conditions: compounds 247-342, measured at 30 min

Row | SMILES | Binding %
17 | N#C/C=C\C(=O)N1CCN(c2ncnc3cc(-c4ccc(F)cc4F)c(Cl)cc23)CC1 [Compound I-263, (Z)-4-(4-(6-chloro-7-(2,4-difluorophenyl)quinaozlin-4-yl)piperazin-1-yl)-4-oxobut-2-enenitrile] | + (+indicates binding activity from 5% to 25%)
18 | C=CC(=O)N1CCN(c2ncnc3c(F)c(-c4c(C)ccc5[nH]ncc45)c(Cl)cc23)CC1CO (stereo not drawn) [Compound 320, 1-(4-(6-chloro-8-fluoro-7-(5-methyl-1H-indazol-4-yl)quinazolin-4-yl)-2-(hydroxymethyl)piperazin-1-yl)prop-2-en-1-one] | ++ (++indicates binding activity greater than 25% and up to 50%)
19 | C=CC(=O)N1CCN(c2ncnc3c(F)c(-c4cc(C(F)F)cc5ccccc45)c(Cl)cc23)CC1 [Compound 337] | + (+indicates binding activity from 5% to 25%)

Same assay, conditions: determined at 2 hrs

Row | SMILES | Binding %
20 | C=CC(=O)N1CC(N2CCN(C(=O)CNc3cc(C4CC4)c(Cl)cc3O)CC2C(N)=O)C1 (stereo not drawn) [II-51, 1-(1-acryloylazetidin-3-yl)-4-(2-(4-chloro-5-cyclopropyl-2-hydroxyphenylamino)acetyl)piperazine-2-carboxamide] | ++ (++indicates binding activity greater than 20%)

Same assay, conditions: determined at 24 hrs

Row | SMILES | Binding %
21 | C=CC(=O)N1CCN(C(=O)c2cc(-c3cc(Cl)ccc3Cl)c(Cl)cc2OC)C(CO)C1 (stereo not drawn) [III-7, 1-(3-(Hydroxymethyl)-4-(2′,5′,6-trichloro-4-methoxy-[1,1′-biphenyl]-3-carbonyl)piperazin-1-yl)prop-2-en-1-one] | +++ (+++indicates binding activity greater than 20% and up to 30%)
22 | C=CC(=O)N1CC(N2CCN(C(=O)CNc3cc(O)c(Cl)cc3Cl)CC2)C1 [II-23, 1-(3-(4-(2-(2,4-dichloro-5-hydroxyphenyl-amino)acetyl)piperazin-1-yl)azetidin-1-yl)prop-2-en-1-one] | + (+indicates binding activity from 5% to 15%)
23 | C=CC(=O)N1CC(N2CCN(C(=O)CNc3cc(Cl)c(F)cc3O)CC2)C1 [II-14, 1-(3-(4-(2-(5-chloro-4-fluoro-2-hydroxyphenyl-amino)acetyl)piperazin-1-yl)azetidin-1-yl)prop-2-en-1-one] | +++ (+++indicates binding activity greater than 25% and up to 50%)
24 | C=CC(=O)N1CC(N2CCN(C(=O)CNc3cc(Cl)c(Cl)cc3Cl)CC2)C1 [II-22, 1-(3-(4-(2-(2,4,5-trichlorophenyl-amino)acetyl)-piperazin-1-yl)azetidin-1-yl)prop-2-en-1-one] | + (+indicates binding activity from 5% to 15%)

— patent publication US10111874B2, “Combination therapies for treatment of cancer” (Araxes Pharma LLC, priority 2014, dated 2018)
